From PubChem BioAssay AID504672 (Sanford-Burnham Center for Chemical Genomics, 2011)
pIC50: −log10 of the molar value. Calls of active or inactive are those of the source. No stated cut-off is given here; in the data, active means IC50 below about 71 µM; inactive means the rest.

Tested on: S. cerevisiae tim10 strain, luminescence counterscreen
Assay: signal inhibition in TIM10 yeast counter-screen, dose response, counter-screen for tim23-1 inhibitor project, luminescence, S. cerevisiae, uHTS hits (AID 504672);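 further: yeast grew roughly 22 hours at 25 °C before the luminescence read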

SMILES: CC1CCc2c(sc3nc(C(C)(C)C)nc(N4CCN(C(=O)CCl)CC4)c23)C1 (stereo unspecified)
- pIC50: 4.63

SMILES: CCOC(=O)c1c(NC(=O)CSc2nnnn2-c2ccc(OC)cc2)sc(C)c1C
- pIC50: 4.94

SMILES: Cc1ccc(-c2nc(CNC(=O)c3cc(C)on3)cs2)cc1
- pIC50: 4.70

SMILES: COn1c(=O)c(-c2cccs2)[n+]([O-])c2ccccc21
- pIC50: 5.18

SMILES: Brc1ccc(OCc2nnnn2-c2ccccc2)cc1
- pIC50: 4.96

SMILES: Cc1ccc(S(=O)(=O)Oc2ccccc2C=C2C(=O)N(C)C(=O)N(C)C2=O)cc1
- pIC50: 5.34

SMILES: O=C(Nc1ccc2nc(-c3ccccc3)[nH]c2c1)c1cccs1
- pIC50: 5.51

SMILES: CC1(C)c2cc(Cl)ccc2-n2c1cc(O)c(-c1ccccc1)c2=O
- pIC50: 4.94

SMILES: C/C(=N\Nc1ccc([N+](=O)[O-])cc1)c1ccc(O)cc1
- pIC50: 5.63

SMILES: Cc1ccc2occ(C(=O)c3ccco3)c(=O)c2c1
- pIC50: 5.04

SMILES: O=C(CC(=O)c1cc(Cl)ccc1O)c1ccccc1
- pIC50: 4.95

SMILES: COc1cccc(C(=O)Nc2ccccc2)c1
- pIC50: 4.61

SMILES: c1cnc2c(c1)ccc1cccnc12
- pIC50: 4.91

SMILES: COc1ccc(C(=O)Nc2nc3ccccc3s2)c(OC)c1
- pIC50: 5.15

SMILES: NC(=S)N/N=C/c1coc2ccc(Br)cc2c1=O
- pIC50: 5.24

SMILES: COc1cccc(Nc2nc3ccc(OC)cc3s2)c1
- pIC50: 4.95

SMILES: Cc1ccc(NC(=O)c2ccc3c(c2)OCCO3)cc1C
- pIC50: 5.38

SMILES: c1ccc2[nH]c(-c3ccc4c(c3)OCO4)nc2c1
- pIC50: 4.91

SMILES: O=c1c2ccccc2[nH]c(=S)n1CCN1CCC(=C(c2ccc(F)cc2)c2ccc(F)cc2)CC1
- pIC50: 4.90

SMILES: O=c1c2ccccc2nc(-c2ccc([N+](=O)[O-])cc2)n1O
- pIC50: 5.31

SMILES: O=c1c(O)c(-c2ccccc2)oc2cc(O)cc(O)c12
- pIC50: 4.45

SMILES: O=C(CSc1ccccc1)N/N=C/c1ccccc1O
- pIC50: 4.96

SMILES: Cc1ccn2cc(C(=O)Nc3ccc4c(c3)OCCO4)nc2c1
- IC50: > 100 µM (inactive)

SMILES: O=C(CSc1cccs1)Nc1ccc2ccccc2c1
- pIC50: 4.61

SMILES: O=C1NN=C(c2ccc(Br)cc2)CC1c1ccc(Cl)cc1 (stereo unspecified)
- pIC50: 4.63

SMILES: CSc1nnc(C)c(/C=C/NOCc2ccc(Cl)cc2)n1
- pIC50: 5.25

SMILES: Cc1ccc2nc(N3C(=O)CNC3=S)sc2c1
- pIC50: 4.68

SMILES: Cc1cccc(OCCN2C(=O)C(=O)c3cc(C)ccc32)c1
- pIC50: 4.94

SMILES: COc1ccc(NC(=O)C#Cc2ccccc2)cc1
- pIC50: 5.17

SMILES: CC1CCc2c(c3ccccc3n2C(=O)CCl)C1 (stereo unspecified)
- pIC50: 5.29

SMILES: COc1cc2c3c(c1)C(C)=CC(C)(C)N3C(=O)C2=O
- pIC50: 4.80

SMILES: O=C(CSc1cccc[n+]1[O-])Nc1ccccc1Oc1ccccc1
- pIC50: 4.75

SMILES: CC1CCN(c2ccc(-c3cccs3)nn2)CC1
- pIC50: 5.08

SMILES: COc1ccc(-c2cc(-c3ccccc3O)[nH]n2)cc1
- pIC50: 4.91

SMILES: Cc1ccc(C(=O)Nc2nc(C(C)(C)C)cs2)s1
- pIC50: 4.68

SMILES: CC1=C(C)/C(=N/OC(=O)c2cccc([N+](=O)[O-])c2)C=CC1=O
- pIC50: 5.28

SMILES: O=C(Nc1cccc(Br)c1)C1CCCC1
- pIC50: 4.85

SMILES: Oc1ccc(Oc2ccc(Oc3ccc(O)cc3)cc2)cc1
- pIC50: 4.52

SMILES: COc1cc2c(cc1OC)/C(=C/c1ccc(Cl)cc1)C(=O)OC2
- pIC50: 4.29

SMILES: O=c1cc(C(Cl)(Cl)Cl)oc2c1ccc1ccccc12
- pIC50: 4.19

SMILES: Cc1ccc2c(c1)C(=O)N1[C@H]3c4ccccc4OC[C@@H]3[C@H](c3ccccc3)[C@]1(C)C(=O)N2
- pIC50: 5.45

SMILES: Cc1cc2cc(CNC(=O)c3ccc(C)c([N+](=O)[O-])c3)ccc2[nH]1
- pIC50: 4.51

SMILES: O=C(Nc1ccc2oc(-c3ccccc3)nc2c1)c1cccnc1
- pIC50: 4.97

SMILES: Cc1[nH]c2ccccc2c1C(=O)/C=C/c1ccccc1
- pIC50: 4.89

SMILES: CNC(=S)N/N=C/c1cc(Br)cc(Br)c1O
- pIC50: 5.09

SMILES: COc1ccc(CCN(/C=C2\Sc3ccccc3C2=O)C(C)=O)cc1OC
- pIC50: 4.58

SMILES: O=C1/C(=C/c2ccncc2)SC(=S)N1C1CCCCC1
- pIC50: 4.56

SMILES: CCOC(=O)c1c(C)oc2c1c(C(c1cccnc1)N1CCCCC1)c(O)c1ccccc12 (stereo unspecified)
- pIC50: 4.44

SMILES: CC1(C)CC(n2c(NCCO)nc3c(c2=O)C2(CCCC2)Cc2ccccc2-3)CCO1 (stereo unspecified)
- pIC50: 4.91

SMILES: CC(=O)Nc1ncnc2c1c(-c1ccc(Cl)cc1)nn2C(C)(C)C
- pIC50: 5.02

SMILES: COc1cc(/C=N/NC(=O)c2ccc(N)cc2)ccc1OC(=O)c1cccc(C)c1
- pIC50: 5.13

SMILES: O=C(COc1ccccc1)N/N=C/c1ccc([N+](=O)[O-])o1
- pIC50: 4.97

SMILES: CC1(C)OC(=O)C(=Cc2ccc[nH]2)C(=O)O1
- pIC50: 5.13

SMILES: O=C(Nc1ccc(F)c(Cl)c1)c1ccccc1
- pIC50: 5.26

SMILES: Cc1nc2scc(C)n2c(=O)c1S(=O)(=O)Nc1ccc(N2CCOCC2)cc1
- IC50: > 100 µM (inactive)

SMILES: Cc1ccc(-c2nc3ccccc3[nH]2)s1
- pIC50: 4.79

SMILES: Cc1nc2ccc(C(C(F)(F)F)(C(F)(F)F)C(F)(F)F)cc2[nH]1
- pIC50: 4.70

SMILES: COc1cccc2c1C(=O)C=C(C)C2=O
- pIC50: 4.88

SMILES: CC1=CC(C)(C)N(C(=O)c2ccc(F)cc2)c2cc3c(cc21)OCO3
- pIC50: 5.42

SMILES: COc1cccc(CNn2c(-c3cccc(C)c3)nc3ccccc3c2=O)c1O
- pIC50: 4.89

SMILES: Cc1ccc2nc(-c3ccc(N)cc3)sc2c1
- pIC50: 4.76

SMILES: O=Cc1cccnc1SCc1ccccc1
- pIC50: 4.92

SMILES: CC(=O)Nc1cccc(-c2cc(-c3c(Cl)cccc3Cl)no2)c1
- pIC50: 5.06

SMILES: Cc1cc(C)nc(SCC(=O)c2cc3ccccc3oc2=O)n1
- pIC50: 4.49

SMILES: Cc1nc2ccccc2c(=O)n1/N=C/c1cc(Br)ccc1O
- pIC50: 4.97

SMILES: CCOC(=O)c1c(C)oc2c(F)c(F)c(F)c(F)c2c1=O
- pIC50: 4.57

SMILES: O=C(Nc1ccc(Nc2ccccc2)cc1)c1ccc(Cl)c([N+](=O)[O-])c1
- pIC50: 4.97

SMILES: Cc1ccccc1[C@@]1(C)ON(c2ccccc2C(F)(F)F)C1=O
- pIC50: 5.43

SMILES: CC(C)n1ncc2c(C(=O)NCC(=O)Nc3ccccc3Br)cc(C3CC3)nc21
- pIC50: 4.56

SMILES: C=CCNC(=O)c1ccc2c3n(nc2c1)-c1ccc(Cl)cc1CO3
- pIC50: 5.08

SMILES: O=C1OC(c2ccccc2)=N/C1=C\C=C\c1ccco1
- IC50: > 100 µM (inactive)

SMILES: CCOc1nc2ccccc2cc1C=O
- pIC50: 5.77

SMILES: Oc1ccc(/C=N/Nc2cccc(Cl)n2)c(O)c1
- pIC50: 4.83

SMILES: Nc1cc([N+](=O)[O-])cc2oc(-c3ccccc3)cc12
- pIC50: 4.62

SMILES: Cc1cc(Nc2ccccc2)nn1C(=O)c1ccccc1
- pIC50: 4.95

SMILES: COc1ccc(/C=C/C(=O)Nc2ccc3c(c2)CCC3)cc1OC
- pIC50: 4.19

SMILES: O=Cc1cn(CCOc2ccccc2F)c2ccccc12
- pIC50: 4.65

SMILES: O=C(Nc1nccs1)c1ccc(Cl)s1
- pIC50: 4.88

SMILES: CCCc1nc2c(c(=O)c3ccccc3n2C)c(=O)n1C1CCCCCC1
- pIC50: 4.63

SMILES: COc1ccc(C(=O)c2sc(Nc3ccccc3F)nc2N)cc1
- pIC50: 4.78

SMILES: COc1cc(NC(=O)c2cccs2)ccc1NC(=O)c1ccccc1Cl
- pIC50: 4.79

SMILES: O=C(N/N=C/c1ccc([N+](=O)[O-])s1)c1ccncc1
- pIC50: 4.90

SMILES: O=C(Nc1cc(-c2ccccc2)[nH]n1)c1ccccc1
- pIC50: 4.36

SMILES: O=C(NC(=O)c1ccccc1F)OCc1ccc(Cl)cc1Cl
- pIC50: 4.82

SMILES: C=CCn1c(SCc2cc(=O)n3ccsc3n2)nc2cc(Cl)ccc2c1=O
- pIC50: 5.02

SMILES: CC[C@@]1(c2ccccc2OC)ON(c2ccccc2C(F)(F)F)C1=O
- pIC50: 5.37

SMILES: Cc1ccc2nc(NC(=O)Cn3nc(C)c([N+](=O)[O-])c3C)sc2c1
- pIC50: 4.74

SMILES: Cc1nc2nc(-c3cccs3)[nH]c2cc1Br
- pIC50: 4.83

SMILES: CC1(S(=O)(=O)O)CC(=O)c2ccccc2C1=O (stereo unspecified)
- pIC50: 5.15

SMILES: c1ccc(-c2nc(NCc3cccs3)c3ccccc3n2)cc1
- pIC50: 4.84

SMILES: O=C(N/N=C/c1ccco1)c1cc2ccccc2o1
- pIC50: 4.65

SMILES: Nc1ccc(/C=C/C(=O)c2cccs2)cc1
- pIC50: 5.50

SMILES: COc1ccc2c(c1)sc1nc(-c3ccccc3)cn12
- pIC50: 4.69

SMILES: O=C(CCl)Nc1cccc(-c2cnc3ccccc3n2)c1
- pIC50: 4.84

SMILES: O=C1Nc2ccccc2/C1=C/c1ccccc1Cl
- pIC50: 5.09

SMILES: Cn1c(/C(C#N)=C/c2ccncc2)nc2ccccc21
- pIC50: 4.46

SMILES: CC(C)c1nc(NCCO)c(C#N)c2c1CCCC2
- pIC50: 4.73

SMILES: O=C(N/N=C/C(Br)=C/c1ccccc1)c1cccs1
- pIC50: 5.07

SMILES: O=C(N/N=C/C(Br)=C/c1ccccc1)c1ccccc1F
- pIC50: 4.81

SMILES: CCc1ccc(NC(=O)/C(C#N)=C/c2ccncc2)cc1
- pIC50: 4.90

SMILES: O=C(NCCCc1ccccc1)Nc1cccc(Cl)c1
- pIC50: 5.29

SMILES: CCn1c(N2CCN(S(=O)(=O)c3ccc(OC)cc3)CC2)nc2ccccc21
- pIC50: 4.24

SMILES: O=C(Nc1ccc(OC(F)(F)F)cc1)N1CCN(c2ccnc3cc(Cl)ccc23)CC1
- pIC50: 4.99

SMILES: Nc1ccc2nc(SCc3ccccc3F)sc2c1
- pIC50: 4.69

SMILES: Cn1c(C=O)c(C#Cc2ccccc2)c2ccccc21
- pIC50: 5.26

SMILES: CO/C(N)=C(\C#N)N=Cc1ccccc1Cl
- pIC50: 4.11

SMILES: CCOC(=O)c1ccc(NC(=O)CSc2nc(=O)n3cccc(C)c3n2)cc1
- pIC50: 4.27

SMILES: O=C(c1cc(-c2ccc(O)cc2)on1)N1CCc2ccccc2C1
- pIC50: 4.77

SMILES: CC1c2[nH]c3ccccc3c2CCN1C(=O)Nc1ccccc1 (stereo unspecified)
- pIC50: 4.85

SMILES: Cc1ccc(Nc2cc(C)c3ccc(O)cc3n2)cc1C
- pIC50: 4.57

SMILES: O=C(Nc1ccc(-c2cn3c(n2)SCC3)cc1)c1ccco1
- pIC50: 4.42

SMILES: CCOC(=O)c1c(-c2ccccc2)oc2ccc(O)cc12
- pIC50: 4.99

SMILES: CCCCn1c(N)c(N(CCC(C)C)C(=O)c2ccc3c(c2)OCO3)c(=O)[nH]c1=O
- IC50: > 100 µM (inactive)

SMILES: Cc1ccc2nc(NC(=O)COC(=O)c3cccnc3)sc2c1
- pIC50: 5.20

SMILES: CCSc1ncc(/C=N/Nc2ccc(Cl)cc2)n1C
- pIC50: 4.96

SMILES: O=C(Nc1ccc(Oc2cccc3ccccc23)cc1)c1ccco1
- pIC50: 5.05

SMILES: Cc1ccc(Nc2nc(Cl)c(C=O)s2)cc1Cl
- pIC50: 5.46

SMILES: CCOc1ccc(N=C(C)C2=C(O)c3ccccc3C2=O)cc1
- pIC50: 4.58

SMILES: CCOC(=O)Nc1ccc2c(c1)Nc1ccccc1S2
- pIC50: 4.90

SMILES: O=C(Oc1cccc2c(O)cccc12)c1ccccc1
- pIC50: 5.32

SMILES: Cc1ccc2oc(C(Cl)(Cl)Cl)cc(=O)c2c1
- pIC50: 5.06

SMILES: C(=C\c1ccccc1)/C=N/Nc1nc2ccccc2[nH]1
- pIC50: 4.41

SMILES: CCN(CC)c1ccc(C(=O)Nc2cccc(F)c2)cc1
- pIC50: 5.25

SMILES: O=C(Nc1ccccc1N(C(=O)c1ccco1)S(=O)(=O)c1cccs1)c1ccco1
- pIC50: 4.71

SMILES: COC(=O)c1ccc(NC(=O)c2nc(S(=O)(=O)Cc3cccc(C)c3)ncc2Cl)cc1
- pIC50: 5.70

SMILES: Cn1cccc1-c1nc2ccc(NC(=O)c3cccs3)cc2[nH]1
- pIC50: 4.55
